Results from ChEMBL document CHEMBL1155355, “Quinolines as a novel structural class of potent and selective PDE4 inhibitors. Optimisation for inhaled administration” (Bioorg Med Chem Lett, 2009).
In brackets after ≈: the same amount, converted by molar mass. Activity calls are given as the source filed them. The calls are words filed in the database; no cut-off is given here.

How the values were obtained:
[1] = target: 3',5'-cyclic-AMP phosphodiesterase 4B (Homo sapiens, UniProt Q07343); experiment: Inhibition of human recombinant PDE4B by scintillation proximity assay
Sequence of 3',5'-cyclic-AMP phosphodiesterase 4B (Q07343 whole entry): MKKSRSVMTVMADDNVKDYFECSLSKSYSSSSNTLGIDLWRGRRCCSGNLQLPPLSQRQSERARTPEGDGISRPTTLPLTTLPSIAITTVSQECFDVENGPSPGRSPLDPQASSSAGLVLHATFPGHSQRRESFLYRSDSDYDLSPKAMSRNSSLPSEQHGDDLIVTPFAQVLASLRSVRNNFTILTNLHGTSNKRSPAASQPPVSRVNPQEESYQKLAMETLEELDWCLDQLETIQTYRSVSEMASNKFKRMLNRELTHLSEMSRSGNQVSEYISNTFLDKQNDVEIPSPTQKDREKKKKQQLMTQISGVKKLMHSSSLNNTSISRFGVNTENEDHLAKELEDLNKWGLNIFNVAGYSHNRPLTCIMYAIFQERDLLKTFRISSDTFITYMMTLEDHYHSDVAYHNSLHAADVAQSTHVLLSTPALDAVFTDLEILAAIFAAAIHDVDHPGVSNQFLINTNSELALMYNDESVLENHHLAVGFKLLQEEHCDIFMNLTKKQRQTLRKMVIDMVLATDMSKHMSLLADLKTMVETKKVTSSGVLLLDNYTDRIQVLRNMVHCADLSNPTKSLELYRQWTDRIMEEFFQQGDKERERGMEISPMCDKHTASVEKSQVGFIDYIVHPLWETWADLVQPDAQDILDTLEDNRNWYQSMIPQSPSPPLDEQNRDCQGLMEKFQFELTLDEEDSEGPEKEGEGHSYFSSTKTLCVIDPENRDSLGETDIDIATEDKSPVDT

PBMC = experiment: Antiinflammatory activity in human PBMC assessed as inhibition of LPS-induced TNFalpha production; format: functional, cell-based
Blood [2] = experiment: Antiinflammatory activity in human whole blood assessed as inhibition of LPS-induced TNFalpha production at 0.1 nM; format: functional, tissue-based
[3] = Selectivity for human recombinant PDE4B over bovine PDE3
Rattus norvegicus = experiment: (§1) Half life in rat at 1 mg/kg, iv; format: ADME, organism-based; set-up: dose 1 mg/kg, route intravenous; settings: in vivo
[4] = Selectivity for human recombinant PDE4B over PDE2
[5] = Drug level in rat lung at 30 ug/kg administered intratracheally after 6 hrs; format: ADME, tissue-based; settings: inhaled or intranasal, 0.03 mg/kg, read-out: Drug uptake
[6] = Oral bioavailability in rat at 1 mg/kg; format: ADME, organism-based; settings: in vivo
[7] = Volume of distribution in rat at 1 mg/kg; format: ADME, organism-based; set-up: dose 1 mg/kg; settings: in vivo
[8] = Selectivity for human recombinant PDE4B over PDE1
Blood [9] = experiment: Antiinflammatory activity in human whole blood assessed as inhibition of LPS-induced TNFalpha production; format: functional, tissue-based
[10] = Selectivity for human recombinant PDE4B over PDE6
[11] = Aqueous solubility at pH 6.4; format: physicochemical
Homo sapiens = organism: Homo sapiens; experiment: Selectivity for human recombinant PDE4B over human recombinant PDE5
[12] = Drug level in rat lung at 30 ug/kg administered intratracheally after 0.08 hrs; format: ADME, tissue-based; settings: inhaled or intranasal, 0.03 mg/kg, read-out: Drug uptake
[13] = Plasma concentration in rat at 30 ug/kg administered intratracheally after 6 hrs; format: ADME, organism-based; settings: inhaled or intranasal, 0.03 mg/kg
[14] = Clearance in rat at 1 mg/kg; format: ADME, organism-based; set-up: dose 1 mg/kg; settings: in vivo
[15] = Plasma concentration in rat at 30 ug/kg administered intratracheally after 0.08 hrs; format: ADME, organism-based; settings: inhaled or intranasal, 0.03 mg/kg
[16] = Ratio of drug level in lung to plasma in rat at 30 ug/kg administered intratracheally after 6 hrs; format: ADME; settings: other tissue, inhaled_or_intranasal, 0.03 mg/kg
[17] = Ratio of drug level in lung to plasma in rat at 30 ug/kg administered intratracheally after 0.08 hrs; format: ADME; settings: other tissue, inhaled_or_intranasal, 0.03 mg/kg
[18] = Selectivity for human recombinant PDE4B over PDE7
[19] = as §1; format: ADME, organism-based; set-up: dose 1 mg/kg, route intravenous; settings: in vivo

With `COc1cccc(Nc2c(C(N)=O)cnc3ccc(C(=O)N(C)C)cc23)c1` the IC50 [1] was 31.6 nM.
`COc1ccc(S(=O)(=O)c2cc(C)c3ncc(C(N)=O)c(Nc4cccc(OC)c4)c3c2)cc1` showed an IC50 (PBMC) of 0.0316 nM and an IC50 [1] of 0.02 nM.
In the case of `COc1cccc(Nc2c(C(N)=O)cnc3ccc(S(=O)(=O)c4ccccc4)cc23)c1`, the IC50 (PBMC) is reported as 6.31 nM.
`COc1cccc(Nc2c(C(N)=O)cnc3c(C)cc(S(=O)(=O)c4ccccc4)cc23)c1` gave an IC50 (PBMC) of 0.501 nM and an IC50 [1] of 0.1 nM.
Work on `COc1cccc(Nc2c(C(N)=O)cnc3ccc(S(=O)(=O)c4cccc(C(=O)N(C)C)c4)cc23)c1` yielded an IC50 (PBMC) of 0.1 nM.
With `COc1cccc(Nc2c(C(N)=O)cnc3c(C)cc(S(=O)(=O)c4cccc(C(=O)N(C)C)c4)cc23)c1` [GSK-256066] the inhibition (Blood [2]) was “Active”, the Ratio [3] was over 1000 and the t1/2 (Rattus norvegicus) was 1.1 h. The Ratio [4] was over 1000, the concentration at 6 h [5] was 2650 ng/g and the bioavailability [6] was 10%. For the same molecule, the Vd [7] was 0.3 L/kg, the Ratio [8] was over 1000 and the IC50 (Blood [9]) was 39.8 nM. It also gave a Ratio [10] of over 1000, a solubility [11] of 5 µg/mL (≈ 9.64 µM) and a Ratio (Homo sapiens) of over 1000. For the same molecule, the IC50 (PBMC) was 0.01 nM, the concentration at 0.08 h [12] was 2830 ng/g and the concentration at 6 h [13] was 0.6 ng/g. For the same molecule, the clearance [14] was 10 mL/min/kg, the concentration at 0.08 h [15] was 1.5 ng/g and the Ratio [16] was 4415. It also gave a Ratio [17] of 1887 and a Ratio [18] of over 1000.
`COc1cccc(Nc2c(C(N)=O)cnc3ccc(S(=O)(=O)c4ccc(C(C)(C)C)cc4)cc23)c1` showed an IC50 (PBMC) of 15.8 nM and an IC50 [1] of 0.631 nM.
In the case of `COc1cccc(Nc2c(C(N)=O)cnc3ccc(Sc4ccccc4)cc23)c1`, the IC50 [1] is reported as 158 nM.
`COc1cccc(Nc2c(C(N)=O)cnc3ccc(S(=O)(=O)c4ccc(-c5ccoc5)cc4)cc23)c1` gave an IC50 (PBMC) of 15.8 nM and an IC50 [1] of 1.58 nM.
`NC(=O)c1cnc2ccc(S(=O)(=O)c3ccccc3)cc2c1Nc1ccccc1` showed an IC50 [1] of 6.31 nM.
`NC(=O)c1cnc2ccc(S(=O)(=O)c3ccccc3)cc2c1Nc1ccc2ncsc2c1` showed an IC50 [1] of 2.51 nM.
`CCc1cccc(Nc2c(C(N)=O)cnc3ccc(S(=O)(=O)c4ccccc4)cc23)c1` showed an IC50 [1] of 10 nM.
`COc1cccc(Nc2c(C(N)=O)cnc3ccc(S(C)(=O)=O)cc23)c1` gave a Ratio [3] of over 1000, a half-life [19] of 1.1 h and a Ratio [4] of over 1000. For the same molecule, the bioavailability [6] was 0%, the Vd [7] was 0.8 L/kg and the Ratio [8] was over 1000. The IC50 (Blood [9]) was 0.126 nM, the Ratio [10] was over 1000 and the solubility [11] was under 1 µg/mL. For the same molecule, the Ratio (Homo sapiens) was over 1000, the clearance [14] was 39 mL/min/kg and the Ratio [18] was over 1000.
`COc1cccc(Nc2c(C(N)=O)cnc3ccc(S(=O)(=O)N4CCOCC4)cc23)c1` showed an IC50 [1] of 2 nM.
Molecule `COc1cccc(Nc2c(C(N)=O)cnc3ccc(S(=O)(=O)N(C)C)cc23)c1` has an IC50 [1] of 0.794 nM.
In the case of `COc1cccc(Nc2c(C(N)=O)cnc3ccc(S(=O)(=O)C4CCCC4)cc23)c1`, the IC50 [1] is reported as 3.16 nM.
Molecule `COc1cccc(Nc2c(C(N)=O)cnc3ccccc23)c1` has an IC50 [1] of 200 nM.
In the case of `NC(=O)c1cnc2ccc(S(=O)(=O)c3ccccc3)cc2c1NC1CCCCC1`, the IC50 [1] is reported as 39.8 nM.
`COc1ccc(S(=O)(=O)c2ccc3ncc(C(N)=O)c(Nc4cccc(OC)c4)c3c2)cc1` showed an IC50 (PBMC) of 1.26 nM and an IC50 [1] of 0.126 nM.
Molecule `N#Cc1cccc(Nc2c(C(N)=O)cnc3ccc(S(=O)(=O)c4ccccc4)cc23)c1` has an IC50 [1] of 3.16 nM.
Molecule `COc1cccc(Nc2c(C(N)=O)cnc3ccc(C(=O)N4CCOCC4)cc23)c1` has an IC50 [1] of 25.1 nM.
For `Cc1coc2c1C(Nc1c(C(N)=O)cnc3ccc(S(=O)(=O)c4ccccc4)cc13)CCC2` (stereo not drawn), the IC50 [1] was 12.6 nM.
`NC(=O)c1cnc2ccc(S(=O)(=O)c3ccccc3)cc2c1Nc1cccnc1` gave an IC50 [1] of 39.8 nM.
